Reference: PMC4129416, “YLT192, a Novel, Orally Active Bioavailable Inhibitor of VEGFR2 Signaling with Potent Antiangiogenic Activity and Antitumor Efficacy in Preclinical Models” (Scientific Reports, 2014)
Read-outs that look alike come from different tables or passages of the source.

What was measured:
HUVEC [1] = assay: VEGF165-stimulated HUVEC growth, MTT assay; assay type: cell-based; conditions: Homo sapiens, induced by VEGF165 (50 ng/mL), read-out: IC50, HUVEC proliferation
Description: The inhibition effect of YLT192 on VEGF165-stimulated HUVEC growth was examined using MTT assay.

[2] = system: alginate beads containing CT26 tumor cells; assay: Alginate-encapsulated tumor cell assay; assay type: in vivo, mice; conditions: 100 mg/kg oral once daily, 14 days, vs vehicle
Method: Figure 3 YLT192 inhibited angiogenesis in vivo. (A) Fluorescent images of 30 hpf zebrafish treated with vehicle or concentrations of YLT192. ISV growth was inhibited by YLT192. One representative experiment of three is shown. Data are means ± SEM (n = 10 per group), *P < 0.05, **P < 0.01. Scale bars represent 100 μm. […] Frozen sections of HCT116 tumors were tested by immunohistochemistry analysis with anti-CD31 antibody. Representative images of the tumor vasculature from vehicle and YLT192 treated mice were shown. The fields were averaged in each tumor, and the averages for each animal were used to give the final mean ± SD (n = 6 mice per group). *P < 0.05, **P < 0.01. Scale bars represent 100 μm. […] Alginate beads containing 5 × 10^4 CT26 cells were implanted s.c. into the backs of mice. Mice were then orally treated with YLT192 or vehicle once daily. Beads were surgically removed 14 days later and FITC-dextran was quantified. […] Data are means ± SD (n = 6 mice per group), *P < 0.05, **P < 0.01. Scale bars represent 500 μm.
To determine whether YLT192 could inhibit angiogenesis induced by tumor cells in vivo, we did the alginate-encapsulated tumor cell assay as described previously. […] The content of FITC-dextran in the beads was quantified as described previously.

A2058 = assay: Inhibition of tumor cell growth; assay type: cell-based; conditions: A2058, human melanoma; 48 hour treatment; means ± SD, n=3
Method: (§1) The proliferative inhibitory ability of YLT192 on tumor cells was investigated. […] Inhibition of cell proliferation is a possible approach for cancer treatment. EdU incorporation assay was performed to investigate the anti-proliferative effects of YLT192 against U251 and HCT116 cells.
(§2) treatment with YLT192. Data are means ± SD, n=3.

A875 = assay: Inhibition of tumor cell growth; assay type: cell-based; conditions: A875, human melanoma; 48 hour treatment; means ± SD, n=3
Method: as §1, §2

tumor cells = assay: Cancer cell viability assays, whole panel; assay type: cell-based
HUVEC [3] = assay: Transwell invasion assay; assay type: cell-based, human; conditions: various concentrations; 24 hours; concentration-dependent
Description: Cell migration is essential for ECs in angiogenesis and for cancer cells in tumor growth and metastasis. […] Cell invasion is essential for EC in angiogenesis, so we performed transwell assays to evaluate the ability of HUVEC to pass through the Matrigel and membrane barriers of the transwell in the presence of various concentrations of YLT192 or vehicle.
Figure 2 Effects of YLT192 on HUVECs proliferation, migration, invasion and tube formation. […] Cells were wounded by the pipette and then treated with various concentrations of compounds for 24 hours. Migrated cells were quantified by manual counting (50×). […] The bottom chambers of the transwells were filled with 600 μL EGM2 containing various growth factors while the top chambers were seeded with 4 × 10^4 HUVECs in EBM2 and treated with different concentrations of compounds for 24 hours. Cells invaded through the membrane were stained and quantified (100×). […] HUVECs were seeded on Matrigel layer and treated with different concentrations of compounds. HUVECs tube formation was assessed 6 hours later (50×). One representative experiment of three is shown. […]
HUVECs were allowed to grow into full confluence in 24-well plates and then wounded by scratching with pipette tips and washed with PBS. […] Images were taken using a ZEISS digital microscope and invading cells were counted by manual counting. […]

## CNC(=O)c1cc(Oc2ccc(NC(=O)c3cccc(OC)c3)cc2)ccn1 [YLT192]
HUVEC [1]
  IC50: 2.3 µM
[2]
  reduction of accumulation of FITC-dextran: 66%
A2058
  IC50: 10.7 ± 1.1 µM
A875
  IC50: 14.1 ± 2.1 µM
Tumor cells; range for most tumor cell lines of the panel, read-out: Most IC50 against the tumor cells
  IC50: 6 to 20 µM
Tumor cells; range over the cancer cell panel, read-out: IC50 values in cancer cell viability assays
  IC50: 6 to 30 µM
HUVEC [3]
  invasion of HUVECs in transwell assay: significantly inhibited
